PubChem BioAssay (NCI)
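96-well plates; 48 h exposure; 5 concentrations. Endpoints by linear interpolation between flanking doses. Not reached: highest tested concentration assigned. GI50 = concentration required for 50% inhibition of growth. At the TGI there is no net growth.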

Key:
Test in all cases: NCI tumour cell line growth inhibition, 48 h
[1] = test system: 786-0 renal
[2] = test system: A498 renal
[3] = test system: A549 NSCLC
[4] = test system: ACHN renal
[5] = test system: BT-549 breast
[6] = test system: CAKI-1 renal
[7] = test system: CCRF-CEM leukemia
[8] = test system: COLO 205 colon
[9] = test system: DU-145 prostate
[10] = test system: EKVX NSCLC
[11] = test system: HCC-2998 colon
[12] = test system: HCT-116 colon
[13] = test system: HCT-15 colon
[14] = test system: HL-60(TB) leukemia
[15] = test system: HOP-62 NSCLC
[16] = test system: HOP-92 NSCLC
[17] = test system: HS 578T breast
[18] = test system: HT29 colon
[19] = test system: IGROV1 ovarian
[20] = test system: K-562 leukemia
[21] = test system: KM12 colon
[22] = test system: LOX IMVI melanoma
[23] = test system: M14 melanoma
[24] = test system: MALME-3M melanoma
[25] = test system: MCF7 breast
[26] = test system: MDA-MB-231 breast
[27] = test system: MDA-MB-435
[28] = test system: MDA-MB-468 breast
[29] = test system: MOLT-4 leukemia
[30] = test system: NCI-H226 lung
[31] = test system: NCI-H23 lung
[32] = test system: NCI-H460 lung
[33] = test system: NCI-H522 lung
[34] = test system: OVCAR-3 ovarian
[35] = test system: OVCAR-4 ovarian
[36] = test system: OVCAR-5 ovarian
[37] = test system: OVCAR-8 ovarian
[38] = test system: PC-3 prostate
[39] = test system: RPMI-8226 leukemia
[40] = test system: RXF 393 renal
[41] = test system: SF-268 CNS
[42] = test system: SF-295 CNS
[43] = test system: SF-539 CNS
[44] = test system: SK-MEL-2 melanoma
[45] = test system: SK-MEL-28 melanoma
[46] = test system: SK-MEL-5 melanoma
[47] = test system: SK-OV-3 ovarian
[48] = test system: SN12C renal
[49] = test system: SNB-19 CNS
[50] = test system: SNB-75 CNS
[51] = test system: SR leukemia
[52] = test system: SW-620 colon
[53] = test system: T-47D breast
[54] = test system: TK-10 renal
[55] = test system: U251 CNS
[56] = test system: UACC-257 melanoma
[57] = test system: UACC-62 melanoma
[58] = test system: UO-31 renal

N#Cc1c(NC(=O)c2ccc(C(F)(F)F)cc2)sc2c1CCC(O)=C2
GI50 [1]: 5.53 µM | TGI [1]: 22.1 µM | GI50 [2]: 14 µM | TGI [2]: 34.2 µM | GI50 [3]: 6.36 µM | TGI [3]: 24.1 µM | GI50 [4]: 6.81 µM | TGI [4]: 27.9 µM | GI50 [5]: 2.82 µM | TGI [5]: 19.3 µM | GI50 [6]: 3.05 µM | TGI [6]: 16 µM | GI50 [7]: 3.21 µM | TGI [7]: > 100 µM | GI50 [8]: 13.4 µM | TGI [8]: 30 µM | GI50 [9]: 6.53 µM | TGI [9]: 22 µM | GI50 [10]: 7.4 µM | TGI [10]: 31.4 µM | GI50 [11]: 7.46 µM | TGI [11]: 21.2 µM | GI50 [12]: 3.49 µM | TGI [12]: 13.4 µM | GI50 [13]: 3.51 µM | TGI [13]: 15.8 µM | GI50 [14]: 2.77 µM | TGI [14]: > 100 µM | GI50 [15]: 4.49 µM | TGI [15]: 17.8 µM | GI50 [16]: 2.85 µM | TGI [16]: 21.9 µM | GI50 [17]: 2.32 µM | TGI [17]: 14.1 µM | GI50 [18]: 4.61 µM | TGI [18]: 18.3 µM | GI50 [19]: 5.23 µM | TGI [19]: 19 µM | GI50 [20]: 2.23 µM | TGI [20]: > 100 µM | GI50 [21]: 3.16 µM | TGI [21]: 13.1 µM | GI50 [22]: 4.56 µM | TGI [22]: 16.8 µM | GI50 [23]: 3.6 µM | TGI [23]: 15.8 µM | GI50 [24]: 2.29 µM | TGI [24]: 12 µM | GI50 [25]: 3.03 µM | TGI [25]: 21.7 µM | GI50 [26]: 2.96 µM | TGI [26]: 14.3 µM | GI50 [27]: 1.23 µM | TGI [27]: 3.31 µM | GI50 [28]: 2.12 µM | TGI [28]: 8.11 µM | GI50 [29]: 4.43 µM | TGI [29]: > 100 µM | GI50 [30]: 4.03 µM | TGI [30]: 19.2 µM | GI50 [31]: 4.91 µM | TGI [31]: 22 µM | GI50 [32]: 3.53 µM | TGI [32]: 14.2 µM | GI50 [33]: 2.53 µM | TGI [33]: 12 µM | GI50 [34]: 3.24 µM | TGI [34]: 12 µM | GI50 [35]: 7.47 µM | TGI [35]: 35 µM | GI50 [36]: 5.38 µM | TGI [36]: 25 µM | GI50 [37]: 5.71 µM | TGI [37]: 22.3 µM | GI50 [38]: 6.12 µM | TGI [38]: > 100 µM | GI50 [39]: 3.53 µM | TGI [39]: > 100 µM | GI50 [40]: 2.38 µM | TGI [40]: 12.7 µM | GI50 [41]: 3.87 µM | TGI [41]: 20.7 µM | GI50 [42]: 4.08 µM | TGI [42]: 16.7 µM | GI50 [43]: 2.1 µM | TGI [43]: 6.92 µM | GI50 [44]: 3.21 µM | TGI [44]: 11.7 µM | GI50 [45]: 6.17 µM | TGI [45]: 25.8 µM | GI50 [46]: 2.71 µM | TGI [46]: 9.4 µM | GI50 [47]: 4.36 µM | TGI [47]: 20 µM | GI50 [48]: 4.08 µM | TGI [48]: 16.5 µM | GI50 [49]: 7.46 µM | TGI [49]: 24.3 µM | GI50 [50]: 1.12 µM | TGI [50]: 6.1 µM | GI50 [51]: 1.48 µM | TGI [51]: > 100 µM | GI50 [52]: 3.13 µM | TGI [52]: 14 µM | GI50 [53]: 3.13 µM | TGI [53]: 24.9 µM | GI50 [54]: 13.3 µM | TGI [54]: 50.3 µM | GI50 [55]: 4.13 µM | TGI [55]: 16.5 µM | GI50 [56]: 6.64 µM | TGI [56]: 29.4 µM | GI50 [57]: 3.23 µM | TGI [57]: 16.2 µM | GI50 [58]: 2.12 µM | TGI [58]: 16.4 µM
